Among the data in PubChem BioAssay (NCI) are TGI and GI50 values, retold here.

Several values for one entry are separate records, joined by “and”; a condition that tells them apart may be missing. Identical values can stand only once.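 Briefly, cells in 96-well plates were exposed to five compound concentrations for 48 h, and endpoints were estimated by linear interpolation. GI50 is the concentration that inhibits growth by half. TGI denotes the concentration required for complete inhibition of growth.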

The term TGI denotes the concentration giving total growth inhibition. Read a high TGI as lower sensitivity of the cells. In general, GI50 refers to the concentration giving 50% growth inhibition.

What all share (assay): DTP human tumour cell line panel, 48 h
Assay [1] concerns ACHN renal.
Assay [2] relates to OVCAR-4 ovarian.
Assay [3] has as its system EKVX NSCLC.
Assay [4] concerns K-562 leukemia.
In assay [5] the test system is RPMI-8226 leukemia.
The test system of assay [6] is SF-539 CNS.
Assay [7] deals with CCRF-CEM leukemia.
Assay [8] has as its system SW-620 colon.
In assay [9] the test system is HOP-62 NSCLC.
For assay [10], the system named is NCI-H460 lung.

Take `COc1cccc2c1C(=O)c1c(O)c3c(c(O)c1C2=O)C[C@@](O)(C(C)=O)C[C@@H]3OC1OC(C)C(O)C(N)C1Br` (some centres not stated): the concentration for total growth inhibition (TGI) in [1] is 0.174 µM and 0.139 µM; in assay [2], 0.83 µM and 2.71 µM; in assay [3], 5.04 µM and 1.98 µM; in assay [4], 1.64 µM and 1.03 µM; in assay [5], 0.702 µM and 0.263 µM; in [6], 0.701 µM and 0.388 µM. Further, the TGI in assay [7] was 0.07 µM and 0.108 µM; in [8], 0.766 µM and 1.46 µM; in [9], 0.0785 µM and 0.236 µM; in [10], 0.115 µM and 0.118 µM. In addition, the GI50 in [2] is 0.43 µM; in [3], 0.195 µM; in assay [4] it was 0.0203 µM; in assay [5], 0.0124 µM; in [6], 0.0419 µM; in assay [8], 0.0266 µM.
As to `Cc1cc(Cl)ccc1N=C1NC(=O)C(CC(=O)Nc2ccc([N+](=O)[O-])cc2[N+](=O)[O-])S1` (configuration not stated), the concentration for total growth inhibition (TGI) in [1] was 71.4 µM; in assay [2], 56.3 µM; in assay [3] it was above 100 µM; in assay [4], above 100 µM; in assay [5], 53.6 µM; in assay [6] it was 59.1 µM. Further, the total growth inhibition concentration (TGI) is above 100 µM in assay [7], above 100 µM in [8], 85 µM in [9] and 84.9 µM in assay [10].
Consider `COc1cc2c(c(OC)c1OC)-c1ccc(OC)c(=O)cc1[C@@H](NC(=O)c1ccccc1)CC2`, for which the concentration for 50% growth inhibition (GI50) in assay [1] is 0.104 µM; in assay [2], 28.1 µM and 13.4 µM; in [3], above 30 µM; in assay [4], below 0.003 µM; in assay [6], below 0.003 µM; in [8] it was below 0.003 µM. The 50% growth inhibitory concentration (GI50) in [9] was below 0.003 µM; in assay [10], 0.00614 µM and < 0.0126 µM. Besides, the total growth inhibition concentration (TGI) was 30 µM and > 100 µM in assay [1]; 30 µM and > 100 µM in assay [2]; above 100 µM in assay [3]; above 80.7 µM in [5]; < 0.003 µM and 0.017 µM in assay [6]; above 100 µM in [7]. The TGI in assay [8] was 30 µM and > 81.4 µM; in assay [9] it was 30 µM and > 100 µM.
`Cc1nc(N)sc1C(=O)/C=C\c1ccc2c(c1)OCO2`: the TGI in assay [1], in assay [2], in [3], in assay [4], in [5] and in [6] was above 100 µM throughout. Also, the concentration for total growth inhibition (TGI) in [7], in [8], in assay [9] and in [10] was above 100 µM each time.
Turning to `CCOC(=O)C1=C(C)N(NC(=O)Nc2ccccc2)C(=O)C1=P(c1ccccc1)(c1ccccc1)c1ccccc1`, the TGI in [1] was above 100 µM; in assay [2] it was above 100 µM; in assay [3], above 100 µM; in assay [4], above 100 µM; in assay [5] it was 82.5 µM; in assay [6], 53.3 µM. Besides, the TGI in assay [7] is 96.7 µM; in assay [8], above 100 µM; in assay [9], above 100 µM; in assay [10], above 100 µM.
Take `Cc1cccc(NC(=O)/C(=N\NC(C)(C)C)C2NC(=S)NC2=O)c1C` (configuration not stated): the concentration for total growth inhibition (TGI) in [1], in assay [2], in [3], in [4], in [5] and in assay [6] was above 100 µM throughout. The TGI in assay [7], in [8], in assay [9] and in assay [10] was above 100 µM each time.
`COC(=O)C1=C(C)N(NC(=O)OC(C)(C)C)C(=O)C1=P(c1ccccc1)(c1ccccc1)c1ccccc1`: the total growth inhibition concentration (TGI) in assay [1], in assay [2], in assay [3], in assay [4], in assay [5] and in [6] was above 100 µM throughout. In addition, the TGI in [7], in assay [8], in assay [9] and in assay [10] was above 100 µM in each case.
In the case of `NS(=O)(=O)c1ccc(NC2(C(=O)O)CCCC2)cc1`, the TGI in [1], in assay [2], in assay [3], in assay [4], in [5] and in [6] was above 100 µM each time. The total growth inhibition concentration (TGI) in [7], in [8], in [9] and in assay [10] was above 100 µM each time.
`COc1ccc(Cn2cc3c(c2-c2ccccc2)CC(C)(C)c2cnoc2-3)cc1`: the GI50 in [1] was 5.06 µM; in [2] it was 5.23 µM; in [3], 1.99 µM; in assay [4], 0.377 µM; in [5] it was 3.09 µM; in assay [6], 2.18 µM. For the same compound, the GI50 in assay [7] was 2.47 µM; in [8], 0.806 µM; in assay [9], 4.05 µM; in [10], 2.17 µM. Also, the TGI in assay [1] is above 100 µM; in assay [2], above 100 µM; in assay [3], above 100 µM; in assay [4], above 100 µM; in assay [5], above 100 µM; in [6] it was 6.02 µM. Further, the TGI in [7], in assay [8], in assay [9] and in assay [10] was above 100 µM in each case.
With `C=C1C(=O)O[C@@H]2/C=C(\C)CC/C=C(/COC(C)=O)C[C@@H](OC(C)=O)[C@@H]12`, the TGI was 17 µM in assay [1]; 45.1 µM in assay [2]; 25.8 µM in assay [3]; above 33.8 µM in assay [4]; above 41.7 µM in [5]; 36.3 µM in assay [6]. Further, the TGI in assay [7] turned out to be 14.3 µM; in [8], 15.4 µM; in assay [9], 72.6 µM; in assay [10], 26 µM.
Turning to `CCC[CH2][Sn]1([CH2]CCC)[O]CC(CN2CCCC2)[O]1` (configuration not stated), the GI50 was 17.3 µM in assay [1]; 14.4 µM in [2]; 12.9 µM in [3]; 4.24 µM in assay [4]; 7.44 µM in [5]; 16.9 µM in assay [6]. The GI50 is 3.33 µM in assay [7], 11.5 µM in assay [8], 34.1 µM in [9] and 34.6 µM in assay [10]. Besides, the concentration for total growth inhibition (TGI) worked out at 31.4 µM in [1]; 28.5 µM in assay [2]; 33.2 µM in assay [3]; 21.4 µM in [4]; 44.1 µM in assay [5]; 38.9 µM in assay [6]. In addition, the total growth inhibition concentration (TGI) in assay [7] is 21.3 µM; in assay [8] it was 27.6 µM; in [9], 73.8 µM; in assay [10] it was above 100 µM.
On to `Cc1cccc(NC(=O)C(=O)C(C(=O)c2ccc3ccccc3c2)C2OC(=O)c3ccccc32)c1C` (configuration not stated), for which the TGI in [1] was 81.4 µM; in [2], 33.7 µM; in assay [3] it was 77.8 µM; in [4], above 100 µM; in assay [5], 43.2 µM; in assay [6] it was 22.3 µM. Besides, the TGI in assay [7] came to 68.8 µM; in assay [8], 24.2 µM; in assay [9] it was 24.7 µM; in [10], 87.8 µM.
Consider `CC1(C)SCc2nc3ncccc3n21`, for which the total growth inhibition concentration (TGI) in [1], in [2], in [3], in [4], in assay [5] and in [6] was above 100 µM throughout. In addition, the TGI in assay [7], in [8], in assay [9] and in assay [10] was above 100 µM throughout.
On to `N=C1C(c2nc3ccccc3s2)=C(O)CN1c1cc(C(F)(F)F)ccc1Cl`, for which the GI50 was 21.2 µM in assay [1]; above 100 µM in assay [2]; 62.7 µM in assay [3]; 3.61 µM in assay [4]; 7.46 µM in assay [5]; 10 µM in [6]. The GI50 in assay [7] was 21.3 µM; in [8], 36.4 µM; in assay [9], 18.4 µM; in [10] it was 13.3 µM. Further, the TGI in [1] is above 100 µM; in [2] it was above 100 µM; in [3] it was above 100 µM; in [4], 21.3 µM; in [5] it was 53 µM; in assay [6] it was 52.9 µM. In addition, the TGI is above 100 µM in assay [7], above 100 µM in assay [8], above 100 µM in assay [9] and 77.9 µM in assay [10].
As to `COc1cc(C(C)O)c[n+](CCc2c[nH]c3ccccc23)c1` (configuration not stated), the total growth inhibition concentration (TGI) in [1], in assay [2], in assay [3], in assay [4], in assay [5] and in assay [6] was above 100 µM in each case. Also, the TGI in assay [7], in [8], in assay [9] and in assay [10] was above 100 µM throughout.
